{
  "source": "patent US20150157588A1",
  "about": "“Pharmaceutical Composition Comprising Amino-Phenyl-Acetic Acid Octadec-(Z)-9-enyl Ester and Use Thereof for Treating Tumors” (Yeda Research and Development Co., Ltd., priority 2012, published 2015)",
  "key": {"[1]": {"test_system": "unstimulated CD3 positive T cells", "assay": "Microarray gene expression, unstimulated T cells", "type": "cell-based, human", "conditions": "for Fold change C16orf7: 205781_at; for Fold change TNFRSF17: 206641_at; for Fold change LILRB2 /// LILRB3: 210784_x_at; for Fold change CLEC11A: 211709_s_at; for Fold change WDR33: 218851_s_at", "experimental": "CD3 positive T cells were extracted from a healthy donor according to a standard protocol, and seeded in T cell medium including RPMI, 10% fetal calf serum, sodium pyruvate, L-Glutamine, and Penicillin/Streptomycin. Following an overnight incubation with medium, the cells were treated by incubating for 2 hours at 37° C. with amino-phenyl-acetic acid octadec-(Z)-9-enyl ester at a concentration of 10 micrograms/ml in a final volume of 10 ml in T-cell medium with or without 0.05% ethanol. After incubation, half the cells from each treatment were centrifuged and 2 ml of Tri-reagent (Sigma) were added to the pellet. The other half of the cells from each treatment were transferred to anti-CD3 antibody coated 24 well plates for an overnight incubation at 37° C. Coating plates with an anti-CD3 antibody was carried out by incubating with 2 micrograms/ml of OKT3 anti-CD3 antibody overnight at 4° C., washing three times with PBS and blocking with filtered 1% Bovine Serum Albumin for 1 hour. After activation with anti-CD3 antibody, cells were centrifuged and 2 ml of Tri-reagent were added to the pellet.\nRNA was extracted from unstimulated cells and from cells activated with anti-CD3 according to standard protocols and used for hybridization with a Human Genome U133A 2.0 (Affymetrix, Catalogue number 900468), according to the manufacturer's instructions. The results of the hybridization were read by a GeneChip scanner 3000 (Affymetrix) and analyzed by QuantArray (GSI lumonics).\nThe effects of amino-phenyl-acetic acid octadec-(Z)-9-enyl ester in ethanol solution or in an aqueous vehicle (hereinafter termed “in PBS”) on gene expression in unstimulated T cells and T cells activated by anti-CD3 antibody were compared by microarray analysis."}, "[2]": {"test_system": "Clone D122 of the 3LL mouse Lewis Lung carcinoma", "assay": "Lung carcinoma mouse model: 3LL cells in footpad, local growth and mortality from lung metastasis after excision", "type": "in vivo", "conditions": "for day of 50% mortality from lung metastasis: 100 μg in PBS subcutaneously twice weekly", "experimental": "Clone D122 of the 3LL mouse Lewis Lung carcinoma, a standard model of growth and metastasis, was used. Syngeneic 8-weeks old C57BL/6 male mice were injected into one hind footpad with 50,000 3LL tumor cells. Local growth of the tumor was followed. Tumors that reached the size of 8 mm×8 mm were excised; tumor excision at this stage was known to trigger the growth of lung metastases that eventually killed the mice. This model allows for investigation of the effect of treatment on two phases of the tumor progression: 1) the effect on local growth, as determined by the time it takes for the tumors to reach the size for excision; and 2) the effect on tumor metastasis as measured by the time it takes for death to occur after excision.\nThree groups of 12-13 mice each were injected with 3LL tumor cells as described in the Materials and Methods section, and were treated subcutaneously with 100 μg of amino-phenyl-acetic acid octadec-(Z)-9-enyl ester injected twice weekly (every Monday and Thursday) either from day 6 after tumor injection (to investigate the effect on local growth and metastasis) or from the time of excision of the tumor (to investigate the effect on metastasis only), or were injected with PBS as a control. […] Tumors were excised on the same day. Mice treated with PBS or mice treated with amino-phenyl-acetic acid octadec-(Z)-9-enyl ester in PBS only following tumor excision reached excision size beginning on day 25 (white bars). In contrast, mice treated with amino-phenyl-acetic acid octadec-(Z)-9-enyl ester from day 6 following injection (black bars) reached excision size on day 32, and all mice were excised by day 41.\nThe PBS-treated mice reached 50% mortality on day 50 (triangles); the mice receiving amino-phenyl-acetic acid octadec-(Z)-9-enyl ester in PBS after tumor excision reached 50% mortality only on day 68 (squares); and the mice treated with amino-phenyl-acetic acid octadec-(Z)-9-enyl ester in PBS from day 6 following tumor implantation reached 50% mortality on day 90 (circles)."}, "[3]": {"assay": "Light scattering at 90 degrees of aggregates in PBS with 0-20% ethanol", "type": "physicochemical", "parameters": "key to intensity of light scattering, relative scale: relative light-scattering intensity; 0% ethanol = 100", "conditions": "10 μM in PBS; for intensity of light scattering, relative scale: 90 degrees, 560 nm", "experimental": "Light scattering at 90 degrees can be used to assess the amount of aggregates in a solution. Higher readings are indicative of a higher degree of aggregation, while lower readings are indicative of disintegration of aggregates into monomers. A series of 10 μM amino-phenyl-acetic acid octadec-(Z)-9-enyl ester solutions was prepared in PBS containing ethanol concentrations of 0-20%. The intensity of light scattering of each solution was recorded at 90 degrees with a 560 nm beam in a Perkin Elmer fluorimeter. The results, presented in a relative scale with respect to the percent ethanol (% ethanol indicated in brackets), were as follows: 100 (0); 98 (0.5); 90 (1): 75 (2); 45(3); 26 (4); 10 (5); 8 (10); 6 (20)."}, "[4]": {"conditions": "in ethanol solution vs untreated"}, "[5]": {"conditions": "in ethanol solution vs untreated, data not shown"}, "[6]": {"conditions": "100 μg in PBS subcutaneously twice weekly from day 6 after tumor injection"}},
  "data": [
    {"smiles": "CCCCCCCC/C=C\\CCCCCCCCOC(=O)C(N)c1ccccc1", "note": "(stereo not drawn) [amino-phenyl-acetic acid octadec-(Z)-9-enyl ester]", "values": [
      {"measurement": "Fold change SYMPK", "setting": "[1]; 32402_s_at, in ethanol solution vs in PBS", "value": 2.03},
      {"measurement": "Fold change HEY1", "setting": "[1]; 44783_s_at, in ethanol solution vs untreated", "value": 2.11},
      {"measurement": "Fold change TPM2", "setting": "[1]; 204083_s_at, in ethanol solution vs untreated", "value": 2.39},
      {"measurement": "Fold change CDC25A", "setting": "[1]; 204695_at, in ethanol solution vs in PBS", "value": 1.94},
      {"measurement": "Fold change EPHB6", "setting": "[1]; 204718_at, in ethanol solution vs in PBS", "value": 2.019},
      {"measurement": "Fold change RRAD", "setting": "[1]; 204802_at, in ethanol solution vs in PBS", "value": 2.27},
      {"measurement": "Fold change C16orf7", "setting": "[1]; in ethanol solution vs in PBS", "value": 2.54},
      {"measurement": "Fold change C16orf7", "setting": "[1]; [4]", "value": 2.15},
      {"measurement": "Fold change RASA3", "setting": "[1]; 206221_at, in PBS vs untreated", "value": "−2.23"},
      {"measurement": "Fold change FLJ23556", "setting": "[1]; 206548_at, in ethanol solution vs in PBS", "value": 1.94},
      {"measurement": "Fold change TNFRSF17", "setting": "[1]; in ethanol solution vs in PBS", "value": 2.08},
      {"measurement": "Fold change TNFRSF17", "setting": "[1]; [4]", "value": 2.06},
      {"measurement": "Fold change SPAG9", "setting": "[1]; 206748_s_at, in PBS vs untreated", "value": "−1.81"},
      {"measurement": "Fold change CRTC1", "setting": "[1]; 207159_x_at, in ethanol solution vs in PBS", "value": 1.96},
      {"measurement": "Fold change TSPAN4", "setting": "[1]; 209263_x_at, in ethanol solution vs in PBS", "value": 2.24},
      {"measurement": "Fold change SF3A2", "setting": "[1]; 209381_x_at, in ethanol solution vs untreated", "value": 1.95},
      {"measurement": "Fold change TBC1D22A", "setting": "[1]; 210144_at, in ethanol solution vs untreated", "value": 2.03},
      {"measurement": "Fold change LILRB2 /// LILRB3", "setting": "[1]; in PBS vs untreated", "value": "−1.84"},
      {"measurement": "Fold change LILRB2 /// LILRB3", "setting": "[1]; in ethanol solution vs in PBS", "value": 2.00},
      {"measurement": "Fold change CLEC11A", "setting": "[1]; in ethanol solution vs in PBS", "value": 2.10},
      {"measurement": "Fold change CLEC11A", "setting": "[1]; [4]", "value": 2.19},
      {"measurement": "Fold change BOP1 /// LOC727967", "setting": "[1]; 212563_at, in ethanol solution vs in PBS", "value": 1.94},
      {"measurement": "Fold change ID2 /// ID2B", "setting": "[1]; 213931_at, in ethanol solution vs in PBS", "value": 2.04},
      {"measurement": "Fold change MCL1", "setting": "[1]; 214057_at, in ethanol solution vs untreated", "value": 2.12},
      {"measurement": "Fold change S100A8", "setting": "[1]; 214370_at, in ethanol solution vs untreated", "value": 1.9},
      {"measurement": "Fold change MTMR1", "setting": "[1]; 214975_s_at, in PBS vs untreated", "value": "−2.41"},
      {"measurement": "Fold change probeset 215450_at", "setting": "[1]; 215450_at, in ethanol solution vs untreated", "value": 1.98},
      {"measurement": "Fold change ARPC4", "setting": "[1]; 217817_at, in ethanol solution vs untreated", "value": 2.03},
      {"measurement": "Fold change CENPT", "setting": "[1]; 218148_at, in ethanol solution vs untreated", "value": 1.94},
      {"measurement": "Fold change CLN6", "setting": "[1]; 218161_s_at, in ethanol solution vs in PBS", "value": 1.94},
      {"measurement": "Fold change IGF2BP2", "setting": "[1]; 218847_at, in ethanol solution vs untreated", "value": 2.02},
      {"measurement": "Fold change WDR33", "setting": "[1]; in ethanol solution vs in PBS", "value": 2.79},
      {"measurement": "Fold change WDR33", "setting": "[1]; [4]", "value": 2.32},
      {"measurement": "Fold change IGHD", "setting": "[1]; 222285_at, in ethanol solution vs untreated", "value": 1.98},
      {"measurement": "Fold change probeset 222376_at", "setting": "[1]; 222376_at, in ethanol solution vs untreated", "value": 2.11},
      {"measurement": "up-regulated genes", "setting": "[1]; in PBS vs untreated", "value": "no significantly up-regulated genes"},
      {"measurement": "number of down-regulated genes", "setting": "[1]; in ethanol solution compared with in PBS", "value": 497, "unit": "genes"},
      {"measurement": "fold down-regulation of the down-regulated genes", "setting": "[1]; [5]", "value": "2-18 fold"},
      {"measurement": "number of down-regulated genes", "setting": "[1]; [5]", "value": 573, "unit": "genes"},
      {"measurement": "day after tumor injection on which mice reached excision size (8 mm×8 mm)", "setting": "[2]; [6]", "value": 32, "unit": "days"},
      {"measurement": "day by which all mice were excised", "setting": "[2]; [6]", "value": "≤ 41", "unit": "days"},
      {"measurement": "day of 50% mortality from lung metastasis", "setting": "[2]; from day 6 following tumor implantation", "value": 90, "unit": "days"},
      {"measurement": "day of 50% mortality from lung metastasis", "setting": "[2]; from tumor excision", "value": 68, "unit": "days"},
      {"measurement": "effect on local tumor growth", "setting": "[2]; twice weekly at the dose of 100 μg, in PBS, subcutaneously", "value": "inhibited local tumor growth"},
      {"measurement": "ethanol concentration in whose presence micellar aggregates disintegrate", "setting": "[3]", "value": "above 4 % ethanol"},
      {"measurement": "intensity of light scattering, relative scale", "setting": "[3]; 0% ethanol", "value": 100},
      {"measurement": "intensity of light scattering, relative scale", "setting": "[3]; 0.5% ethanol", "value": 98},
      {"measurement": "intensity of light scattering, relative scale", "setting": "[3]; 1% ethanol", "value": 90},
      {"measurement": "intensity of light scattering, relative scale", "setting": "[3]; 2% ethanol", "value": 75},
      {"measurement": "intensity of light scattering, relative scale", "setting": "[3]; 3% ethanol", "value": 45},
      {"measurement": "intensity of light scattering, relative scale", "setting": "[3]; 4% ethanol", "value": 26},
      {"measurement": "intensity of light scattering, relative scale", "setting": "[3]; 5% ethanol", "value": 10},
      {"measurement": "intensity of light scattering, relative scale", "setting": "[3]; 10% ethanol", "value": 8},
      {"measurement": "intensity of light scattering, relative scale", "setting": "[3]; 20% ethanol", "value": 6}
    ]}
  ]
}
